Test results: patent US20230016424A1, “HYBRID AMIDE DERIVATIVES OF AMPHOTERICIN B” (The Board of Trustees of the University of Illinois, priority 2019, published 2023)
≈ marks a conversion by molar mass, not a printed value.

Key:
[1] = system: KIM1, LCN2, TIMP1, SPP1; test: Biomarkers of renal injury by RTPCR after IV injection; set-up: species or system mice; settings: mouse, in vivo
[2] = system: A. tubingensis; test: MIC against moulds; format: cell-based; settings: 6 isolates
[3] = system: A. thermomutatus; test: MIC against moulds; format: cell-based; settings: for MIC A. thermomutatus: 6 isolates
[4] = Liver Microsome stability (In Vitro Metabolism); format: in vitro ADME; settings: for Remaining (T = NCF60 min): no cofactor 60 min
Procedure, shortened: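 Compound at 10 uM working solution (50 mM potassium phosphate, 9% MeOH, 1% DMSO) incubated at 37 C with liver microsomes (0.625 mg/ml working) and NADPH regenerating system. Sampled at 5–60 min plus a no-cofactor 60 min control. Reactions quenched with cold ACN containing internal standards; remaining compound measured by LCMS.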

[5] = system: CD-1 mice; format: in vivo; settings: for Mouse single IV injection: mortality: 40 mpk
Protocol: Procedure: The experiment was performed using the commercial Fungizone and Ambisome. Compound BA was directly used after purification without any special treatment. […] . Female CD-1 mice were (3 per group; body weight 30 g each) injected with the drugs/compounds and monitored for 24 h for death or distress signs.
Compound BA was directly used after purification without any special treatment. […] . Female CD-1 mice were (3 per group; body weight 30 g each) injected with the drugs/compounds and monitored for 24 h for death or distress signs.

[6] = system: Licht. Corymbifera; test: MIC against moulds; format: cell-based; settings: 6 isolates
[7] = system: A. flavus; test: MIC against moulds; format: cell-based; settings: 6 isolates
[8] = In vivo mouse pharmacokinetics, IV; set-up: species or system CD-1 mice
Protocol: The experiment was performed using the compounds synthesized in lab and purified by preparative HPLC (>91%). All the compounds were dissolved in D5W (5% dextrose in water) at for IV injection. Female CD-1 mice were (3 per group; body weight approx. 30 g each) injected with the compounds (as per planned dosage) and the blood samples were collected at different time points and the compound content was analysed using the following procedure.
An aliquot of […], IS solution (100 ng/mL Labetalol & 100 ng/mL Tolbutamide in ACN), the mixture was vortex-mixed well and centrifuged at 3900 rpm for 10 min, 4[…]. An aliquot of 90 μL supernatant was transferred to sample plate and mixed with 60 μL water, then the plate was shaken at 800 rpm for 10 min. 15.0 μL supernatant was injected for LC-MS/MS analysis.

[9] = system: C. albicans SN250; test: MIC; format: cell-based, Candida albicans
[10] = system: C. glabrata; test: MIC; format: cell-based
[11] = system: A. fumigatus 1163; test: MIC; format: cell-based
[12] = system: C. krusei; test: MIC; format: cell-based
[13] = system: C. tropicalis; test: MIC; format: cell-based

Which “Renal toxicity biomarkers KIM1, LCN2, TIMP1, SPP1” value [1] does the source give for C[C@@H]1[C@H](O)[C@@H](C)/C=C/C=C/C=C/C=C/C=C/C=C/C=C/[C@H](OC2O[C@H](C)[C@@H](O)[C@H](N)[C@@H]2O)C[C@@H]2O[C@](O)(C[C@@H](O)C[C@@H](O)[C@H](O)CC[C@@H](O)C[C@@H](O)CC(=O)O[C@H]1C)C[C@H](O)[C@H]2C(=O)O (stereo partly drawn) [AmB, Amphotericin B] here?
Its value is “elevated”.

What about the MIC ([2]; Aspergillus tubingensis) of the same molecule?
Its MIC is 0.125 µM (≈ 0.116 µg/mL).

What about the MIC ([3]; Aspergillus thermomutatus, read-out: MIC A. thermomutatus) of the same molecule?
The MIC was 0.6 µM (≈ 0.554 µg/mL).

What about the CLint scaled at 1 µM ([4]; Dog liver microsomes) of the same molecule?
Its CLint scaled at 1 µM is < 14 mL/min/kg.

What about the “Remaining (T = 60 min)” value ([4]; Dog liver microsomes) of the same molecule?
Its value is 106%.

What about the half-life at 1 µM ([4]; Dog liver microsomes) of the same molecule?
The half-life at 1 µM was > 2.42 h.

And the microsomal CLint at 1 µM ([4]; Dog liver microsomes)?
The microsomal CLint at 1 µM was < 9.6 µL/min/mg.

And the “Remaining (T = NCF60 min)” value ([4]; Dog liver microsomes)?
Its value is 94.7%.

What about the CLint scaled at 1 µM ([4]; Human liver microsomes) of the same molecule?
Its CLint scaled at 1 µM is < 8.6 mL/min/kg.

And the “Remaining (T = 60 min)” value ([4]; Human liver microsomes)?
The value was 100%.

And the half-life at 1 µM ([4]; Human liver microsomes)?
The half-life at 1 µM was > 2.42 h.

What about the microsomal CLint at 1 µM ([4]; Human liver microsomes) of the same molecule?
Its microsomal CLint at 1 µM is < 9.6 µL/min/mg.

And the “Remaining (T = NCF60 min)” value ([4]; Human liver microsomes)?
Its value is 104%.

What about the CLint scaled at 1 µM ([4]; Monkey liver microsomes) of the same molecule?
The CLint scaled at 1 µM was < 13 mL/min/kg.

And the “Remaining (T = 60 min)” value ([4]; Monkey liver microsomes)?
The value was 142%.

And the half-life at 1 µM ([4]; Monkey liver microsomes)?
The half-life at 1 µM was > 2.42 h.

What about the microsomal CLint at 1 µM ([4]; Monkey liver microsomes) of the same molecule?
The microsomal CLint at 1 µM was < 9.6 µL/min/mg.

What about the “Remaining (T = NCF60 min)” value ([4]; Monkey liver microsomes) of the same molecule?
Its value is 105%.

What about the CLint scaled at 1 µM ([4]; Mouse liver microsomes) of the same molecule?
The CLint scaled at 1 µM was < 38 mL/min/kg.

What about the “Remaining (T = 60 min)” value ([4]; Mouse liver microsomes) of the same molecule?
Its value is 106%.

What about the half-life at 1 µM ([4]; Mouse liver microsomes) of the same molecule?
The half-life at 1 µM was > 2.42 h.

What about the microsomal CLint at 1 µM ([4]; Mouse liver microsomes) of the same molecule?
The microsomal CLint at 1 µM was < 9.6 µL/min/mg.

What about the “Remaining (T = NCF60 min)” value ([4]; Mouse liver microsomes) of the same molecule?
The value was 93.1%.

And the CLint scaled at 1 µM ([4]; Rat liver microsomes)?
Its CLint scaled at 1 µM is < 17 mL/min/kg.

What about the “Remaining (T = 60 min)” value ([4]; Rat liver microsomes) of the same molecule?
Its value is 121%.

What about the half-life at 1 µM ([4]; Rat liver microsomes) of the same molecule?
The half-life at 1 µM was > 2.42 h.

What about the microsomal CLint at 1 µM ([4]; Rat liver microsomes) of the same molecule?
The microsomal CLint at 1 µM was < 9.6 µL/min/mg.

What about the “Remaining (T = NCF60 min)” value ([4]; Rat liver microsomes) of the same molecule?
Its value is 111%.

And the “Mouse single IV injection: mortality” value [5]?
The value was 0/3.

And the MIC ([6]; Lichtheimia corymbifera)?
Its MIC is 0.23 µM (≈ 0.213 µg/mL).

What about the MIC ([7]; Aspergillus flavus) of the same molecule?
Its MIC is 1.16 µM (≈ 1.07 µg/mL).

What does the source list for CC1C=CC=CC=CC=CC=CC=CC=CC(OC2OC(C)C(O)C(N)C2O)CC2OC(O)(CC(O)CC(O)C(O)CCC(O)CC(O)CC(=O)OC(C)C(C)C1O)CC(O)C2C(=O)NCCO (stereo not drawn) [Compound BA]?
In vivo PK AUC0-inf ([8]; 1 mg/kg IV): 7488] ng*hr/mL; In vivo PK Cl ([8]; 1 mg/kg IV): 2.24 mL/min/kg; In vivo PK T1/2 ([8]; 1 mg/kg IV): 6.87 h; In vivo PK AUC0-inf ([8]; 5 mg/kg IV): 26694 ng·h/mL; In vivo PK Cl ([8]; 5 mg/kg IV): 3.13 mL/min/kg; In vivo PK T1/2 ([8]; 5 mg/kg IV): 8.00 h; MIC [2]: 0.92 µM (≈ 0.89 µg/mL); MIC A. thermomutatus [3]: 1.6 µM (≈ 1.55 µg/mL); CL ([4]; Dog liver microsomes): <9.6 µL/min/mg; Remaining (T = 60 min) ([4]; Dog liver microsomes): 111%; T1/2 ([4]; Dog liver microsomes): >2.42 h; CL ([4]; Human liver microsomes): <9.6 µL/min/mg; Remaining (T = 60 min) ([4]; Human liver microsomes): 99.9%; T1/2 ([4]; Human liver microsomes): >2.42 h; CL ([4]; Monkey liver microsomes): <9.6 µL/min/mg; Remaining (T = 60 min) ([4]; Monkey liver microsomes): 108%; T1/2 ([4]; Monkey liver microsomes): >2.42 h; CL ([4]; Mouse liver microsomes): <9.6 µL/min/mg; Remaining (T = 60 min) ([4]; Mouse liver microsomes): 97.7%; T1/2 ([4]; Mouse liver microsomes): >2.42 h; CL ([4]; Rat liver microsomes): <9.6 µL/min/mg; Remaining (T = 60 min) ([4]; Rat liver microsomes): 115%; T1/2 ([4]; Rat liver microsomes): >2.42 h; Number of Mice Alive ([5]; 40 mg/kg IV, 24 h): 3/3; Number of Mice Distress-Fee ([5]; 40 mg/kg IV, 24 h): 3/3; Mouse single IV injection: mortality [5]: 0/4; Tolerability in mice ([5]; IV in D5W): Well-Tolerated; MIC [6]: 1 µM (≈ 0.967 µg/mL); MIC C. albicans SN250 [9]: 0.25 µM (≈ 0.242 µg/mL); MIC [7]: 2.67 µM (≈ 2.58 µg/mL)

What does the source list for CC1C=CC=CC=CC=CC=CC=CC=CC(OC2OC(C)C(O)C(N)C2O)CC2OC(O)(CC(O)CC(O)C(O)CCC(O)CC(O)CC(=O)OC(C)C(C)C1O)CC(O)C2C(=O)NCCF (stereo not drawn) [Compound BM]?
MIC C. glabrata [10]: 250 µM (≈ 242 µg/mL); MIC A. fumigatus 1163 [11]: 1000 µM (≈ 969 µg/mL); MIC [2]: 0.92 µM (≈ 0.892 µg/mL); MIC C. krusei [12]: 1000 µM (≈ 969 µg/mL); MIC A. thermomutatus [3]: 1.7 µM (≈ 1.65 µg/mL); MIC C. tropicalis [13]: 500 µM (≈ 485 µg/mL); MIC [6]: 1 µM (≈ 0.969 µg/mL); MIC [7]: 2.5 µM (≈ 2.42 µg/mL)
